Reference: patent US20170050957A1, “4-AMINO-6-(HETEROCYCLIC)PICOLINATES AND 6-AMINO-2-(HETEROCYCLIC)PYRIMIDINE-4-CARBOXYLATES AND THEIR USE AS HERBICIDES” (Dow AgroSciences LLC, priority 2013, published 2017)
Read-outs that look alike come from different tables or passages of the source.

Tests used:
[1] = tested on: Key Broadleaf Weed and Crop Species; assay: Post-emergent Test II herbicidal activity (Table 15); type: in vivo; details: post-emergence, 336 h, 14 d; for pest or weed control at 35 g/ha: 35 g ai/ha; for pest or weed control at 70 g/ha: 70 g ai/ha; for pest or weed control at 140 g/ha: 140 g ai/ha
Summary of the method: (§1)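 Herbicidal effect scored as percent visual injury, 14 d after post-emergent application. Spray solutions contained acetone, DMSO, isopropyl alcohol, crop oil concentrate and surfactant, applied at 187 L/ha to young plants (1-2 true leaves).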

[2] = tested on: Key Grass and Sedge Weeds as well as Grass Crops; assay: Post-emergent Test II herbicidal activity (Table 16); type: in vivo; details: post-emergence, 336 h; for pest or weed control at 35 g/ha: 35 g ai/ha; for pest or weed control at 70 g/ha: 70 g ai/ha; for pest or weed control at 140 g/ha: 140 g ai/ha
Summary of the method: as §1

[3] = Abutilon theophrasti, velvetleaf (Abutilon theophrasti), read-out: Visual Growth Reduction (%) 14 Days After Application, ABUTH
[4] = Amaranthus retroflexus, redroot pigweed (Amaranthus retroflexus), read-out: Visual Growth Reduction (%) 14 Days After Application, AMARE
[5] = Brassica napus, oilseed rape, canola (Brassica napus), read-out: Visual Growth Reduction (%) 14 Days After Application, BRSNN
[6] = Chenopodium album, lambsquarters (Chenopodium album), read-out: Visual Growth Reduction (%) 14 Days After Application, CHEAL
[7] = Euphorbia heterophylla, wild poinsettia (Euphorbia heterophylla), read-out: Visual Growth Reduction (%) 14 Days After Application, EPHHL
[8] = Helianthus annuus, sunflower (Helianthus annuus), read-out: Visual Growth Reduction (%) 14 Days After Application, HELAN
[9] = Cyperus esculentus, yellow nutsedge (Cyperus esculentus), 14 d, read-out: Visual Growth Reduction (%) 14 Days After Application, CYPES
[10] = Echinochloa crus-galli, barnyardgrass (Echinochloa crus-galli), 14 d, read-out: Visual Growth Reduction (%) 14 Days After Application, ECHCG
[11] = Oryza sativa, rice (Oryza sativa), 14 d, read-out: Visual Growth Reduction (%) 14 Days After Application, ORYSA
[12] = Setaria faberi, giant foxtail (Setaria faberi), 14 d, read-out: Visual Growth Reduction (%) 14 Days After Application, SETFA
[13] = Triticum aestivum, wheat, spring (Triticum aestivum), 14 d, read-out: Visual Growth Reduction (%) 14 Days After Application, TRZAS
[14] = Zea mays, maize, corn (Zea mays), 14 d, read-out: Visual Growth Reduction (%) 14 Days After Application, ZEAMX
[15] = Echinochloa crus-galli, barnyardgrass (Echinochloa crus-galli), 14 days after application, read-out: Visual Growth Reduction (%) 14 Days After Application ECHCG
[16] = Oryza sativa, rice (Oryza sativa), 14 days after application, read-out: Visual Growth Reduction (%) 14 Days After Application ORYSA
[17] = Setaria faberi, giant foxtail (Setaria faberi), 14 days after application, read-out: Visual Growth Reduction (%) 14 Days After Application SETFA
[18] = Triticum aestivum, wheat, spring (Triticum aestivum), 14 days after application, read-out: Visual Growth Reduction (%) 14 Days After Application TRZAS
[19] = Zea mays, maize, corn (Zea mays), 14 days after application, read-out: Visual Growth Reduction (%) 14 Days After Application ZEAMX

COC(=O)c1nc(-c2ccc3[nH]ccc3c2)c(F)c(N)c1Cl [Compound 1.02, Methyl 4-amino-3-chloro-5-fluoro-6-(1H-indol-5-yl)picolinate]
pest or weed control at 35 g/ha [1, 3]: 0 to 29% | pest or weed control at 70 g/ha [1, 3]: 0 to 29% | pest or weed control at 140 g/ha [1, 3]: 0 to 29% | pest or weed control at 70 g/ha [1, 4]: 85 to 94% | pest or weed control at 140 g/ha [1, 4]: 85 to 94% | pest or weed control at 35 g/ha [1, 5]: 0 to 29% | pest or weed control at 70 g/ha [1, 5]: 0 to 29% | pest or weed control at 140 g/ha [1, 5]: 0 to 29% | pest or weed control at 35 g/ha [1, 6]: 75 to 84% | pest or weed control at 70 g/ha [1, 6]: 85 to 94% | pest or weed control at 140 g/ha [1, 6]: 95 to 100% | pest or weed control at 35 g/ha [1, 7]: 45 to 59% | pest or weed control at 70 g/ha [1, 7]: 45 to 59% | pest or weed control at 140 g/ha [1, 7]: 60 to 74% | pest or weed control at 35 g/ha [1, 8]: 45 to 59% | pest or weed control at 70 g/ha [1, 8]: 60 to 74% | pest or weed control at 140 g/ha [1, 8]: 60 to 74% | pest or weed control at 35 g/ha [2, 9]: 0 to 29% | pest or weed control at 70 g/ha [2, 9]: 0 to 29% | pest or weed control at 140 g/ha [2, 9]: 0 to 29% | pest or weed control at 35 g/ha [2, 10]: 0 to 29% | pest or weed control at 70 g/ha [2, 10]: 0 to 29% | pest or weed control at 140 g/ha [2, 10]: 45 to 59% | pest or weed control at 35 g/ha [2, 11]: 0 to 29% | pest or weed control at 70 g/ha [2, 11]: 0 to 29% | pest or weed control at 140 g/ha [2, 11]: 0 to 29% | pest or weed control at 35 g/ha [2, 12]: 0 to 29% | pest or weed control at 70 g/ha [2, 12]: 0 to 29% | pest or weed control at 140 g/ha [2, 12]: 0 to 29% | pest or weed control at 35 g/ha [2, 13]: 0 to 29% | pest or weed control at 70 g/ha [2, 13]: 0 to 29% | pest or weed control at 140 g/ha [2, 13]: 0 to 29% | pest or weed control at 35 g/ha [2, 14]: 0 to 29% | pest or weed control at 70 g/ha [2, 14]: 0 to 29% | pest or weed control at 140 g/ha [2, 14]: 0 to 29% | melting point: 221 to 224 °C

COC(=O)c1nc(-c2ccc3ocnc3c2)c(F)c(N)c1Cl [Compound 5.01]
pest or weed control at 35 g/ha [1, 3]: 60 to 74% | pest or weed control at 70 g/ha [1, 3]: 60 to 74% | pest or weed control at 140 g/ha [1, 3]: 60 to 74% | pest or weed control at 35 g/ha [1, 4]: 75 to 84% | pest or weed control at 70 g/ha [1, 4]: 85 to 94% | pest or weed control at 140 g/ha [1, 4]: 85 to 94% | pest or weed control at 35 g/ha [1, 5]: 85 to 94% | pest or weed control at 70 g/ha [1, 5]: 95 to 100% | pest or weed control at 140 g/ha [1, 5]: 95 to 100% | pest or weed control at 35 g/ha [1, 6]: 60 to 74% | pest or weed control at 70 g/ha [1, 6]: 85 to 94% | pest or weed control at 140 g/ha [1, 6]: 85 to 94% | pest or weed control at 70 g/ha [1, 7]: 95 to 100% | pest or weed control at 35 g/ha [1, 8]: 85 to 94% | pest or weed control at 70 g/ha [1, 8]: 85 to 94% | pest or weed control at 140 g/ha [1, 8]: 95 to 100% | pest or weed control at 35 g/ha [2, 15]: 75 to 84% | pest or weed control at 70 g/ha [2, 15]: 75 to 84% | pest or weed control at 140 g/ha [2, 15]: 85 to 94% | pest or weed control at 35 g/ha [2, 16]: 0 to 29% | pest or weed control at 70 g/ha [2, 16]: 0 to 29% | pest or weed control at 140 g/ha [2, 16]: 0 to 29% | pest or weed control at 35 g/ha [2, 17]: 0 to 29% | pest or weed control at 70 g/ha [2, 17]: 0 to 29% | pest or weed control at 140 g/ha [2, 17]: 0 to 29% | pest or weed control at 35 g/ha [2, 18]: 0 to 29% | pest or weed control at 70 g/ha [2, 18]: 0 to 29% | pest or weed control at 140 g/ha [2, 18]: 0 to 29% | pest or weed control at 35 g/ha [2, 19]: 0 to 29% | pest or weed control at 70 g/ha [2, 19]: 0 to 29% | pest or weed control at 140 g/ha [2, 19]: 0 to 29%
